Measured values reported in PMC12154458, “High-Throughput Screens of Repurposing Hub and DOS Chemical Libraries Reveal Compounds with Novel and Potent Inhibitory Activity Against the Essential Non-Neuronal Acetylcholinesterase of Schistosoma mansoni (SmTAChE)” (International Journal of Molecular Sciences, 2025).
Read-outs that look alike come from different tables or passages of the source.

Experiments:
[1] = molecular target: T1, rSmTAChE (Schistosoma mansoni, UniProt A0A3Q0KMM5); assay type: biochemical;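 for Inhibition (%) (Average): mostly 20 µM final but a few compounds at 5 or 10 µM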;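 for Inhibition (%) Replicate A: mostly 20 µM final but a few compounds at 5 or 10 µM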;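 for Inhibition (%) Replicate B: mostly 20 µM final but a few compounds at 5 or 10 µM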
[2] = molecular target: T1, rSmTAChE; assay: biochemical
[3] = molecular target: recombinant human acetylcholinesterase, rHsAChE (Homo sapiens, UniProt P22303); assay: biochemical
[4] = read-out: qAC50 (IC50), rSmTAChE
[5] = read-out: qAC50 (IC50), rHsAChE

Sequence of recombinant human acetylcholinesterase, rHsAChE (P22303 32-614): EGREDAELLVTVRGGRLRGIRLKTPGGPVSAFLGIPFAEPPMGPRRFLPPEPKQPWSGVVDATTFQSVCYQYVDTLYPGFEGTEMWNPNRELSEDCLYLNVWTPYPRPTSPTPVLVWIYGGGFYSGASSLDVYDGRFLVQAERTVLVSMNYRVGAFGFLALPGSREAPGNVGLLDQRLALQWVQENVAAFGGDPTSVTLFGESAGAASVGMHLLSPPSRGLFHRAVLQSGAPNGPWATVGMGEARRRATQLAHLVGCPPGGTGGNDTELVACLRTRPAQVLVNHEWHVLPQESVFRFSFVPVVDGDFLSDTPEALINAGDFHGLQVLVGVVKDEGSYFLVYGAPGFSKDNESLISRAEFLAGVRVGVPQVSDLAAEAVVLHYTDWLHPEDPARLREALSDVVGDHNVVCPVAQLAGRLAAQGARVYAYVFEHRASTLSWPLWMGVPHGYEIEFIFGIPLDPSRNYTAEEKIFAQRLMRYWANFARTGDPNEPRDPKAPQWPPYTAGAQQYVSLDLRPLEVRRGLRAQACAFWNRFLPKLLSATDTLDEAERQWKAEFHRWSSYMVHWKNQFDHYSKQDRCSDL
T1 sequence (A0A3Q0KMM5 27-661 limits assumed): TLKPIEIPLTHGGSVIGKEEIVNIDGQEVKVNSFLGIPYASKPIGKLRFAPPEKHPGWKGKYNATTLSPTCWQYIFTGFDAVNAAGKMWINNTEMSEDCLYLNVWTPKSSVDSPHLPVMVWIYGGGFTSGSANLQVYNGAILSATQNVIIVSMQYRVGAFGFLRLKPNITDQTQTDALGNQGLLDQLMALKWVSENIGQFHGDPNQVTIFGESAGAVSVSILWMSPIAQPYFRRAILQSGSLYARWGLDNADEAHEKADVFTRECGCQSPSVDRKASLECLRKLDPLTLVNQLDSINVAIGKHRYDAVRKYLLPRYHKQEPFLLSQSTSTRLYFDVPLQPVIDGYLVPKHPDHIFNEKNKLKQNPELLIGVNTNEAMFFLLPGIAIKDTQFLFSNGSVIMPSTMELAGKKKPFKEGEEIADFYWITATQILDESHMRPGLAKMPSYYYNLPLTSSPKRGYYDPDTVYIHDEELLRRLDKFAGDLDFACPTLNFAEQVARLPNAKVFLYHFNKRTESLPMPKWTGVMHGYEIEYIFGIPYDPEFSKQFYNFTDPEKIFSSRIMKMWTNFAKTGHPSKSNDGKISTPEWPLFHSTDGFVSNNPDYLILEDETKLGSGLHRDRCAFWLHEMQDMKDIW

SMILES | Data Mode (curve class), rSmTAChE [1] | IC50 ([1]; read-out: IC50 (µM) rSmTAChE) [µM] | Inhibition (%) Replicate A [2] [%] | Inhibition (%) Replicate B [2] [%] | rSmTAChE HTS Inhibition (Ave, %) ([2]; 20 µM) [%] | Data Mode (curve class), rHsAChE [3] | SI (Sm/Hs) [3] | IC50 ([3]; read-out: IC50 (µM) rHsAChE) [µM] | IC50 [1, 4] [µM] | Inhibition (%) (Average) [2] | IC50 [3, 5] [µM] | rSmTAChE Data Mode [1] | rHsAChE Data Mode [3] | SI (Hs/Sm) [1] | HTS/rSmTAChE Inhibition (Ave, %) ([2]; 20 µM) [%] | inhibition at 20 µM ([2]; read-out: rSmTAChE HTS Inhibition (Ave, %)) [%]
O=C(Nc1ncc(SCCN2CCCC2)s1)[C@]1(c2ccc(S(=O)(=O)C3CC3)cc2)C[C@H]1C1CCCCC1 [LY2608204, reference compound] | decreasing (weakly active) | > 12 | 71.61 | 81.29 | 76.45 | decreasing | 23.28 | 0.52 | – | – | – | – | – | – | – | –
N#Cc1ccc(N2NC3=C(CCc4cc(C(=O)O)ccc43)[C@@H]2C2CCCC2)cc1Cl [BRD-K51041191-001-01-4] | decreasing (weakly active) | – | 70.13 | 63.46 | – | decreasing (weakly active) | – | – | > 38 | 66.80 | > 38 | – | – | – | – | –
CC#C[C@@H](CC(=O)O)c1ccc(OCc2cccc(-c3ccc(C(F)(F)F)cc3)c2)cc1 [BRD-K43802723-340-01-9] | decreasing | – | 80.42 | 79.10 | – | decreasing | – | – | 13.4 | 79.76 | 15.4 | – | – | – | – | –
COc1ccc(C#Cc2ccc3c(c2)O[C@H](CN(C)S(=O)(=O)c2ccccc2F)[C@H](C)CN([C@@H](C)CO)S3(=O)=O)cc1 [BRD-K71357636-001-01-3] | – | – | 63.67 | 66.19 | – | – | – | – | – | 64.93 | – | inactive | inactive | – | – | –
C[C@H](CO)N1C[C@H](C)[C@H](CN(C)CC2CC2)OCc2ccccc2-c2c(n(C)c3ccccc23)C1=O [BRD-K90625171-001-01-1] | – | – | 64.87 | 64.27 | – | – | – | – | – | 64.57 | – | decreasing (weakly active) | inactive | – | – | –
CC(=O)c1cc([N+](=O)[O-])c(Sc2cccc(Cl)c2Cl)s1 [BRD-K13606314-001-01-3] | inactive | – | 72.57 | 75.33 | – | decreasing (weakly active) | – | – | – | 73.95 | > 38 | – | – | – | – | –
COC(=O)[C@]12CCC(C)(C)C[C@@H]1[C@@H]1C(=O)C=C3[C@]4(C)C=C(C#N)C(=O)C(C)(C)[C@@H]4CC[C@@]3(C)[C@]1(C)CC2 [BRD-K69694239-001-02-2] | decreasing | – | 75.16 | 76.41 | – | decreasing (weakly active) | – | – | 34.7 | 75.78 | > 38 | – | – | – | – | –
Cc1cnc(Nc2ccc(N3CCN(C)CC3)cc2)nc1Nc1cccc(S(=O)(=O)NC(C)(C)C)c1 [TG-101209, reference compound] | decreasing | 6.13 | 68.94 | 73.04 | – | decreasing | – | 15.4 | – | 70.99 | 15.4 | – | – | 2.51 | 71.00 | –
Cc1cc(C#N)cc(C)c1Oc1nc(Nc2ccc(C#N)cc2)nc(N)c1Br [BRD-K74717603-001-02-2] | decreasing (weakly active) | – | 77.10 | 71.88 | – | inactive | – | – | > 38 | 74.49 | – | – | – | – | – | –
COc1ccc(C#Cc2ccc3c(c2)O[C@@H](CN(C)S(=O)(=O)c2ccccc2F)[C@@H](C)CN([C@@H](C)CO)S3(=O)=O)cc1 [BRD-K10241968-001-01-1] | – | – | 63.23 | 62.84 | – | – | – | – | – | 63.03 | – | inactive | inactive | – | – | –
O=C(C[C@H]1C=C[C@H](NC(=O)c2ccncc2)[C@@H](CO)O1)Nc1ccc(-c2ccccc2)cc1 [BRD-K04695993-001-01-5] | – | – | 77.66 | 87.01 | – | – | – | – | – | 82.34 | – | inactive | inactive | – | – | –
CCCCc1oc2ccccc2c1C(=O)c1cc(I)c(OCCN(CC)CC)c(I)c1 [BRD-K17561142-003-35-8] | decreasing (weakly active) | – | 66.24 | 72.67 | – | decreasing (weakly active) | – | – | > 38 | 69.46 | > 38 | – | – | – | – | –
CCCCCCCCCCCCCCCC[N+](C)(C)C [BRD-K47079459-004-04-6] | decreasing | – | 65.92 | 62.47 | – | decreasing | – | – | 17 | 64.20 | 10.3 | – | – | – | – | –
CN(C)C(=O)Oc1ccc[n+](C)c1 [Pyridostigmine bromide, reference compound] | decreasing | – | – | – | – | decreasing (super-active) | – | – | – | – | – | – | – | – | – | 92.4
NC(=O)N/N=C/c1ccc(Oc2ccc(F)cc2)cc1 [BRD-K70912147-001-01-8] | inactive | – | 80.22 | 71.46 | – | inactive | – | – | – | 75.84 | – | – | – | – | – | –
C[C@]12CCC3c4ccc(O)cc4CCC3C1CC[C@@H]2OC(=O)CCC1CCCC1 (stereo partly shown) [BRD-A91452556-001-04-0] | inactive | – | 90.28 | 86.98 | – | decreasing (weakly active) | – | – | – | 88.63 | > 38 | – | – | – | – | –
COC(=O)/C=C/c1cccc(N(Cc2ccc(-c3ccc(N(C)C)cc3)cc2)C(=O)C2CCCCC2)c1 [BRD-K08864679-001-02-2] | inactive | – | 71.08 | 63.46 | – | inactive | – | – | – | 67.27 | – | – | – | – | – | –
O=C(C[C@@H]1C[C@@H]2c3cc(NC(=O)NC4CCCC4)ccc3O[C@@H]2[C@@H](CO)O1)NCc1ccccc1F [BRD-K71334452-001-01-3] | – | – | 90.25 | 88.11 | – | – | – | – | – | 89.18 | – | inactive | inactive | – | – | –
O=C(O)c1ccccc1Nc1ccc(CCc2ccc(Cl)c(Cl)c2)cc1 [BRD-K34657753-001-01-9] | decreasing | – | 83.46 | 81.56 | – | decreasing | – | – | 12.4 | 82.51 | 8.55 | – | – | – | – | –
CC(C)c1onc(-c2c(Cl)cccc2Cl)c1COc1ccc(/C=C/c2cccc(C(=O)O)c2)c(Cl)c1 [GW-4064, reference compound] | decreasing | 1.47 | 66.57 | 65.41 | – | decreasing | – | 8.83 | – | 65.99 | – | – | – | 6.00 | 66.00 | –
COc1ccc(NC(=O)Nc2ccc3c(c2)[C@@H]2C[C@H](CC(=O)NCc4ccc5c(c4)OCO5)O[C@H](CO)[C@@H]2O3)cc1 [BRD-K77518191-001-01-1] | – | – | 87.37 | 88.63 | – | – | – | – | – | 88.00 | – | decreasing (weakly active) | inactive | – | – | –
